In US20230348376A1 (TEIJIN PHARMA LIMITED, priority 2020, published 2023):

Molecular target: T1, human VDR (Homo sapiens, UniProt P11473)
T1 sequence (P11473 1-427): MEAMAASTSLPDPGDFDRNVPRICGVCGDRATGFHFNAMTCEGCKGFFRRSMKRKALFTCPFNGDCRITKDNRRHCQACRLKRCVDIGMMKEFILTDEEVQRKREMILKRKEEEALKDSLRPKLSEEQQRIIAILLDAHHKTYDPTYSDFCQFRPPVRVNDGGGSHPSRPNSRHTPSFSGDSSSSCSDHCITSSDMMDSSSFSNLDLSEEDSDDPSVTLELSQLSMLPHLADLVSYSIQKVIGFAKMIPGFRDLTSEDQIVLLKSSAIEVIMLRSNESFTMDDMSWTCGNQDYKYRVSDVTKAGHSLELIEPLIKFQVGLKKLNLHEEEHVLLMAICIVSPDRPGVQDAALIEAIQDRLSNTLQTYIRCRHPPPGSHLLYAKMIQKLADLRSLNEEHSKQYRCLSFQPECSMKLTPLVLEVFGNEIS
T1 sequence (P19793 1-462 partner): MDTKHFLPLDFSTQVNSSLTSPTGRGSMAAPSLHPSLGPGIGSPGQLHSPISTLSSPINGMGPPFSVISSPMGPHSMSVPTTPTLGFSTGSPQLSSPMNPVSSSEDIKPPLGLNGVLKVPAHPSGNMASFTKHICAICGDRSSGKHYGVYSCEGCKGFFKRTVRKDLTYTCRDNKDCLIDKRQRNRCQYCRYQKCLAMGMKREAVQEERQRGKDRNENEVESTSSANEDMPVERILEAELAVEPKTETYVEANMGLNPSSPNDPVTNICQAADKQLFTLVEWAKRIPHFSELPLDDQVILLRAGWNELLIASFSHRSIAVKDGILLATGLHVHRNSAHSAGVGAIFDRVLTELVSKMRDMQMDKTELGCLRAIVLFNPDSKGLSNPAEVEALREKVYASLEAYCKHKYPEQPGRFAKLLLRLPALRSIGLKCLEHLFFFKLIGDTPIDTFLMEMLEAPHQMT
Experiment: Evaluation of VDR transcription activity in human osteoblasts (HOS cells), luciferase reporter
Conditions: Activity (EC50, VDR transcription activity), HOS cells transfected with human VDR, human RXRα and DR3 luciferase reporter; 21 hours

SMILES	EC50
C=C1[C@H](O)CC(=C/C=C2\CCC[C@]3(C)[C@@H]([C@H](C)CN4CC[C@H](OC(F)F)C4)CC[C@@H]23)C[C@H]1O [Compound B049, (1R,3R)-5-(2-((1R,3aS,7aR,E)-1-((S)-1-((S)-3-(difluoromethoxy)pyrrolidin-1-yl)propan-2-yl)-7a-methyloctahydro-4H-inden-4-ylidene)ethylidene)-2-methylenecyclohexane-1,3-diol]	1 to 10 nM
C=C1/C(=C\C=C2/CCC[C@]3(C)[C@@H]([C@@H](C)CN4CCCC4)CC[C@@H]23)C[C@@H](O)C[C@@H]1O [Compound B009, (1R,3S,Z)-5-(2-((1R,3aS,7aR,E)-7a-methyl-1-((R)-1-(pyrrolidin-1-yl)propan-2-yl)octahydro-4H-inden-4-ylidene)ethylidene)-4-methylenecyclohexane-1,3-diol]	100 to 1000 nM
C[C@H](CCN1CC[C@@H](OC(F)F)C1)[C@H]1CC[C@H]2/C(=C/C=C3C[C@@H](O)C[C@H](O)C3)CCC[C@]12C [Compound B087, (1R,3R)-5-(2-((1R,3aS,7aR,E)-1-((R)-4-((R)-3-(difluoromethoxy)pyrrolidin-1-yl)butan-2-yl)-7a-methyloctahydro-4H-inden-4-ylidene)ethylidene)cyclohexane-1,3-diol]	100 to 1000 nM
C=C1[C@H](O)CC(=C/C=C2\CCC[C@]3(C)[C@@H]([C@H](C)CN4CC(C(C)(F)F)C4)CC[C@@H]23)C[C@H]1O [Compound A007, (1R,3R)-5-(2-((1R,3aS,7aR,E)-1-((S)-1-(3-(1,1-difluoroethyl)azetidin-1-yl)propan-2-yl)-7a-methyloctahydro-4H-inden-4-ylidene)ethylidene)-2-methylenecyclohexane-1,3-diol]	10 to 100 nM
C[C@@H](CN1CC[C@@H](C(F)F)C1)[C@H]1CC[C@H]2/C(=C/C=C3CC(O)C[C@H](O)C3)CCC[C@]12C (stereo in doubt) [Compound B100, (1R,3S)-5-(2-((1R,3aS,7aR,E)-1-((R)-1-((R)-3-(difluoromethyl)pyrrolidin-1-yl)propan-2-yl)-7a-methyloctahydro-4H-inden-4-ylidene)ethylidene)cyclohexane-1,3-diol]	1 to 10 nM
C[C@@H](CN1CC[C@@H](CC(F)F)C1)[C@H]1CC[C@H]2/C(=C/C=C3CC(O)C[C@H](O)C3)CCC[C@]12C (stereo in doubt) [Compound B103, (1R,3 S)-5-(2-((1R,3aS,7aR,E)-1-((R)-1-((S)-3-(2,2-difluoroethyl)pyrrolidin-1-yl)propan-2-yl)-7a-methyloctahydro-4H-inden-4-ylidene)ethylidene)cyclohexane-1,3-diol]	10 to 100 nM
C[C@H](CCN1CC[C@H](C(F)F)C1)[C@H]1CC[C@H]2/C(=C/C=C3C[C@@H](O)C[C@H](O)C3)CCC[C@]12C [Compound B080, (1R,3R)-5-(2-((1R,3aS,7aR,E)-1-((R)-4-((S)-3-(difluoromethyl)pyrrolidin-1-yl)butan-2-yl)-7a-methyloctahydro-4H-inden-4-ylidene)ethylidene)cyclohexane-1,3-diol]	10 to 100 nM
C[C@H](CCN1CC(OC(F)F)C1)[C@H]1CC[C@H]2/C(=C/C=C3C[C@@H](O)C[C@H](O)C3)CCC[C@]12C [Compound A025, (1R,3R)-5-(2-((1R,3aS,7aR,E)-1-((R)-4-(3-(difluoromethoxy)azetidin-1-yl)butan-2-yl)-7a-methyloctahydro-4H-inden-4-ylidene)ethylidene)cyclohexane-1,3-diol]	100 to 1000 nM

Now from value to molecule:

EC50	SMILES
1 to 10 nM	C=C1/C(=C\C=C2/CCC[C@]3(C)[C@@H]([C@H](C)CN4CCC(O)(C(F)F)CC4)CC[C@@H]23)C[C@@H](O)[C@H](C)[C@@H]1O [Compound C023, (1R,2S,3S,Z)-5-(2-((1R,3aS,7aR,E)-1-((S)-1-(4-(difluoromethyl)-4-hydroxypiperidin-1-yl)propan-2-yl)-7a-methyloctahydro-4H-inden-4-ylidene)ethylidene)-2-methyl-4-methylenecyclohexane-1,3-diol]
10 to 100 nM	C=C1[C@H](O)CC(=C/C=C2\CCC[C@]3(C)[C@@H]([C@@H](C)CN4CCC(CC(F)F)CC4)CC[C@@H]23)C[C@H]1O [Compound C056, (1R,3R)-5-(2-((1R,3aS,7aR,E)-1-((R)-1-(4-(2,2-difluoroethyl)piperidin-1-yl)propan-2-yl)-7a-methyloctahydro-4H-inden-4-ylidene)ethylidene)-2-methylenecyclohexane-1,3-diol]
1 to 10 nM	C=C1/C(=C\C=C2/CCC[C@]3(C)[C@@H]([C@H](C)CN4CCCC(O)(C(F)(F)F)C4)CC[C@@H]23)C[C@@H](O)[C@H](C)[C@@H]1O (single isomer, unassigned) [Compound C031b]
1 to 10 nM	C=C1[C@H](O)CC(=C/C=C2\CCC[C@]3(C)[C@@H]([C@H](C)CN4CCC[C@H](C(C)(F)F)C4)CC[C@@H]23)C[C@H]1O [Compound C053, (1R,3R)-5-(2-((1R,3aS,7aR,E)-1-((S)-1-((S)-3-(1,1-difluoroethyl)piperidin-1-yl)propan-2-yl)-7a-methyloctahydro-4H-inden-4-ylidene)ethylidene)-2-methylenecyclohexane-1,3-diol]
100 to 1000 nM	C=C1/C(=C\C=C2/CCC[C@]3(C)[C@@H]([C@H](C)CN4CCC(C(F)F)CC4)CC[C@@H]23)C[C@@H](O)[C@H](C)[C@@H]1O [Compound C016, (1R,2S,3S,Z)-5-(2-((1R,3aS,7aR,E)-1-((S)-1-(4-(difluoromethyl)piperidin-1-yl)propan-2-yl)-7a-methyloctahydro-4H-inden-4-ylidene)ethylidene)-2-methyl-4-methylenecyclohexane-1,3-diol]
1 to 10 nM	C=C1[C@H](O)CC(=C/C=C2\CCC[C@]3(C)[C@@H]([C@H](C)CCN4CCO[C@H](C)C4)CC[C@@H]23)C[C@H]1O [Compound D040, (1R,3R)-5-(2-((1R,3aS,7aR,E)-7a-methyl-1-((R)-4-((R)-2-methylmorpholino)butan-2-yl)octahydro-4H-inden-4-ylidene)ethylidene)-2-methylenecyclohexane-1,3-diol]
100 to 1000 nM	C=C1/C(=C\C=C2/CCC[C@]3(C)[C@@H]([C@H](C)CN4CCCC(C)(OC)C4)CC[C@@H]23)C[C@@H](O)C[C@@H]1O (single isomer, unassigned) [Compound C043b]
< 1 nM	C=C1/C(=C\C=C2/CCC[C@]3(C)[C@@H]([C@H](C)CN4CCCC(O)(CC)C4)CC[C@@H]23)C[C@@H](O)C[C@@H]1O (single isomer, unassigned) [Compound C042a]
< 1 nM	C=C1/C(=C\C=C2/CCC[C@]3(C)[C@@H]([C@H](C)CN4CCCC(O)(C(F)F)C4)CC[C@@H]23)C[C@@H](O)C[C@@H]1O (single isomer, unassigned) [Compound C034a]
1 to 10 nM	C=C1/C(=C\C=C2/CCC[C@]3(C)[C@@H]([C@@H](C)CN4CCC(C(F)F)CC4)CC[C@@H]23)C[C@@H](O)[C@H](C)[C@@H]1O [Compound C020, (1R,2S,3S,Z)-5-(2-((1R,3aS,7aR,E)-1-((R)-1-(4-(difluoromethyl)piperidin-1-yl)propan-2-yl)-7a-methyloctahydro-4H-inden-4-ylidene)ethylidene)-2-methyl-4-methylenecyclohexane-1,3-diol]
10 to 100 nM	C=C1/C(=C\C=C2/CCC[C@]3(C)[C@@H]([C@H](C)CCN4CCO[C@H](C(F)F)C4)CC[C@@H]23)C[C@@H](O)C[C@@H]1O [Compound D035, (1R,3S,Z)-5-(2-((1R,3aS,7aR,E)-1-((R)-4-((S)-2-(difluoromethyl)morpholino)butan-2-yl)-7a-methyloctahydro-4H-inden-4-ylidene)ethylidene)-4-methyloctahydro-1,3-diol]
10 to 100 nM	C=C1/C(=C\C=C2/CCC[C@]3(C)[C@@H]([C@H](C)CCN4CCOCC4)CC[C@@H]23)C[C@@H](O)C[C@@H]1O [Compound D022, (1R,3S,Z)-5-(2-((1R,3aS,7aR,E)-7a-methyl-1-((R)-4-morpholinobutan-2-yl)octahydro-4H-inden-4-ylidene)ethylidene)-4-methylenecyclohexane-1,3-diol]
10 to 100 nM	C=C1/C(=C\C=C2/CCC[C@]3(C)[C@@H]([C@H](C)CN4CCC(O)(C(F)(F)F)CC4)CC[C@@H]23)C[C@@H](O)[C@H](C)[C@@H]1O [Compound C003, (1R,2S,3S,Z)-5-(2-((1R,3aS,7aR,E)-1-((S)-1-(4-hydroxy-4-(trifluoromethyl)piperidin-1-yl)propan-2-yl)-7a-methyloctahydro-4H-inden-4-ylidene)ethylidene)-2-methyl-4-methylenecyclohexane-1,3-diol]
1 to 10 nM	C=C1[C@H](O)CC(=C/C=C2\CCC[C@]3(C)[C@@H]([C@H](C)CN4CCCC(O)(CC)C4)CC[C@@H]23)C[C@H]1O (single isomer, unassigned) [Compound C046b]
